Consider 19 molecules from US20240425479A1, “HALO-SUBSTITUTED AMINO AZA-HETEROARYL COMPOUNDS AS INHIBITORS OF THE HAEMATOPOIETIC PROGENITOR KINASE 1 (HPK1)” (priority 2021, published 2024).

SMILES strings stand for the structures.

Test [1] has as its target T1, Recombinant (1-346) HPK1 (h) (Homo sapiens, UniProt Q92918).
T1 construct: Recombinant (1-346) HPK1 (h) is incubated with 8 mM MOPS pH 7.0
T1 sequence (Q92918 1-346): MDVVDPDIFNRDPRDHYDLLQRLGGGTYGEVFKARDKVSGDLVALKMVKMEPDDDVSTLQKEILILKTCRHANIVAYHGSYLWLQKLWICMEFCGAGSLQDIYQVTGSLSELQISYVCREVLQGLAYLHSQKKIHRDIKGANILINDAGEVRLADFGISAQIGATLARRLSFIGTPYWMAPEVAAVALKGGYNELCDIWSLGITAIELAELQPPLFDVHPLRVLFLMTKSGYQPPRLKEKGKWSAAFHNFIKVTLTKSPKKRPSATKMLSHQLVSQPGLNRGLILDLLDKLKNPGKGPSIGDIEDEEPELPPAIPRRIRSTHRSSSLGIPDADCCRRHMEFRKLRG
Kind of test: HPK1 human STE kinase enzymatic radiometric assay. Type of test: biochemical. The conditions noted are these: read-out: HPK1 IC50 nM Range. An outline of the steps: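 Recombinant HPK1 (1-346) incubated 40 min at RT with 0.33 mg/mL myelin basic protein and [gamma-33P]-ATP in 8 mM MOPS pH 7.0, 0.2 mM EDTA, 10 mM Mg acetate; reaction started with Mg/ATP. Stopped with 0.5% phosphoric acid, spotted on P30 filtermat, washed, scintillation counted. Compounds tested as 9-point 3-fold dilutions.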

The next test has as its target Lck (h) (Homo sapiens, UniProt P06239). The experiment in a line: Lck human STE kinase enzymatic radiometric assay. It is filed as biochemical. The conditions noted are these: read-out: Lck IC50 nM Range. On the procedure: (b) Lck Human STE Kinase Enzymatic Radiometric Assay
Lck (h) is incubated with 50 mM Tris pH 7.5, 0.1 mM EGTA, 0.1 mM Na3VO4, 250 uM KVEKIGEGTYGVVYK (Cdc2 peptide), 10 mM MgAcetate and [gamma-33P]-ATP (specific activity and concentration as required). The reaction is initiated by the addition of the Mg/ATP mix. After incubation for 40 minutes at room temperature, the reaction is stopped by the addition of phosphoric acid to a concentration of 0.5%, 10 μL of the reaction is then spotted onto a P30 filtermat and washed four times for 4 minutes in 0.425% phosphoric acid and once in methanol prior to drying and scintillation counting. For more details on the kinase assay procedures see: Gao, Y. et. al.; Biochem J., 451 (2): 313-328, 2013.

Chain of Lck (h) (P06239 whole entry): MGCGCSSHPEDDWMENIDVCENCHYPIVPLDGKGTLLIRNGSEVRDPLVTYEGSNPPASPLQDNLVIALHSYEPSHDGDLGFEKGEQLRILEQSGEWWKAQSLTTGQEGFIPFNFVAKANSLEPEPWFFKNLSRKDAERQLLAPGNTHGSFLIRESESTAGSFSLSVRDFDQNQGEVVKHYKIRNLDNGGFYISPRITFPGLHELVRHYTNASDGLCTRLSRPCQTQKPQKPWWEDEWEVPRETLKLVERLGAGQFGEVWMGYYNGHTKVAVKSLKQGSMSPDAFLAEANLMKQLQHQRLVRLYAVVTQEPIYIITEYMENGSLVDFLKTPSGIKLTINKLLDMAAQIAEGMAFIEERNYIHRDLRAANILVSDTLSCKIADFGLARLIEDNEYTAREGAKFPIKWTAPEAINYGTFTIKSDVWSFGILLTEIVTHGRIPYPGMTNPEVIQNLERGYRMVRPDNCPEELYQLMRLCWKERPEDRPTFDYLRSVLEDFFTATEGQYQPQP

`Cc1[nH]c(=O)c2ccc(-c3nc(-c4ccc(C5CCOCC5)c(CN(C)C)c4)c(F)nc3N)cc2c1F` [Example I-97, 6-(3-amino-6-(3-((dimethylamino)methyl)-4-(tetrahydro-2H-pyran-4-yl)phenyl)-5-fluoropyrazin-2-yl)-4-fluoro-3-methylisoquinolin-1(2H)-one]: the IC50 is 0.1 to 10 nM in test [1] and greater than 1000 nM on Lck (h).

For the molecule `CN1C[C@H]2C[C@@]2(c2ccc(-c3nc(-c4cc5c(cc4F)C(=O)NCC5)c(N)nc3F)cc2)C1` [Example I-3, 6-(3-amino-5-fluoro-6-(4-((1R,5S)-3-methyl-3-azabicyclo[3.1.0]hexan-1-yl)phenyl)pyrazin-2-yl)-7-fluoro-3,4-dihydroisoquinolin-1(2H)-one], the values for the IC50 (in test [1]; at Lck (h)) were 0.1 to 10 nM and greater than 1000 nM, respectively.

`Nc1nc(F)c(-c2ccc(N3CCN(CC4CC4)CC3)cc2)nc1-c1ccc2c(=O)[nH]ccc2c1` [Example I-23, 6-(3-amino-6-(4-(4-(cyclopropylmethyl)piperazin-1-yl)phenyl)-5-fluoropyrazin-2-yl)isoquinolin-1(2H)-one]: the concentration for half-maximal inhibition (IC50) in test [1] was 0.1 to 10 nM; at Lck (h), greater than 1000 nM.

As to `Nc1nc(F)c(-c2ccc(N3CCN(CC4CC4)CC3)cc2)nc1-c1cc2cc[nH]c(=O)c2cc1F` [Example I-25, 6-(3-amino-6-(4-(4-(cyclopropylmethyl)piperazin-1-yl)phenyl)-5-fluoropyrazin-2-yl)-7-fluoroisoquinolin-1(2H)-one], the values for the IC50 (in test [1]; on Lck (h)) were 0.1 to 10 nM and 101 to 1000 nM, respectively.

For `CC(C)N1C[C@@H]2C[C@]2(c2ccc(-c3nc(-c4cc5c(cc4F)C(=O)NCC5)c(N)nc3F)cc2)C1` [Example I-6, 6-(3-amino-5-fluoro-6-(4-((1S,5R)-3-isopropyl-3-azabicyclo[3.1.0]hexan-1-yl)phenyl)pyrazin-2-yl)-7-fluoro-3,4-dihydroisoquinolin-1(2H)-one], the IC50 in test [1] is 0.1 to 10 nM; at Lck (h) it was 101 to 1000 nM.

Turning to `CC(C)N1CCN(c2ccc(-c3nc(-c4ccc5c(=O)[nH]ncc5c4)c(N)nc3F)cc2)CC1` [Example I-38, 6-(3-amino-5-fluoro-6-(4-(4-isopropylpiperazin-1-yl)phenyl)pyrazin-2-yl)phthalazin-1(2H)-one], the results for the IC50 (in test [1]; at Lck (h)) were 11 to 100 nM and greater than 1000 nM, respectively.

Regarding `CC(C)N1CCN(c2ccc(-c3nc(-c4ccc5c(=O)[nH]ccc5c4)c(N)nc3F)cc2)CC1` [Example I-20, 6-(3-amino-5-fluoro-6-(4-(4-isopropylpiperazin-1-yl)phenyl)pyrazin-2-yl)isoquinolin-1(2H)-one], the IC50 in test [1] is 0.1 to 10 nM; on Lck (h), greater than 1000 nM.

On to `Cc1[nH]c(=O)c2c(F)cc(-c3nc(-c4ccc(C5CCOCC5)c(CN(C)C)c4)c(F)nc3N)cc2c1F` [Example I-117, 6-(3-amino-6-(3-((dimethylamino)methyl)-4-(tetrahydro-2H-pyran-4-yl)phenyl)-5-fluoropyrazin-2-yl)-4,8-difluoro-3-methylisoquinolin-1(2H)-one], for which the IC50 in test [1] was 0.1 to 10 nM; on Lck (h), greater than 1000 nM.

Take `CN1C[C@@H]2C[C@]2(c2ccc(-c3nc(-c4ccc5c(=O)[nH]cc(F)c5c4)c(N)nc3F)cc2)C1` [Example I-80, 6-(3-amino-5-fluoro-6-(4-((1S,5R)-3-methyl-3-azabicyclo[3.1.0]hexan-1-yl)phenyl)pyrazin-2-yl)-4-fluoroisoquinolin-1(2H)-one]: the values for the IC50 (in test [1]; on Lck (h)) were 0.1 to 10 nM and greater than 1000 nM, respectively.

In the case of `CC(C)N1CCN(c2ccc(-c3nc(-c4cc(F)c5c(c4)CCNC5=O)c(N)nc3F)cc2)CC1` [Example I-14, 6-(3-amino-5-fluoro-6-(4-(4-isopropylpiperazin-1-yl)phenyl)pyrazin-2-yl)-8-fluoro-3,4-dihydroisoquinolin-1(2H)-one], the IC50 in test [1] was in the range of 0.1 to 10 nM; on Lck (h), 101 to 1000 nM.

On to `Cc1c[nH]c(=O)c2ccc(-c3nc(-c4ccc(C5CCOCC5)c(CN(C)C)c4)c(F)nc3N)cc12` [Example I-98, 6-(3-amino-6-(3-((dimethylamino)methyl)-4-(tetrahydro-2H-pyran-4-yl)phenyl)-5-fluoropyrazin-2-yl)-4-methylisoquinolin-1(2H)-one], for which the values for the IC50 (in test [1]; on Lck (h)) were 0.1 to 10 nM and greater than 1000 nM, respectively.

Regarding `CC(C)N1CCC(c2ccc(-c3nc(-c4cc(F)c5c(c4)CCNC5=O)c(N)nc3F)cc2)CC1` [Example I-10, 6-(3-amino-5-fluoro-6-(4-(1-isopropylpiperidin-4-yl)phenyl)pyrazin-2-yl)-8-fluoro-3,4-dihydroisoquinolin-1(2H)-one], the IC50 in test [1] was in the range of 0.1 to 10 nM; on Lck (h) it was 101 to 1000 nM.

Regarding `CN(C)Cc1cc(-c2nc(-c3ccc4c(c3)C(F)(F)CNC4=O)c(N)nc2F)ccc1C1CCOCC1` [Example I-223, 6-(3-amino-6-(3-((dimethylamino)methyl)-4-(tetrahydro-2H-pyran-4-yl)phenyl)-5-fluoropyrazin-2-yl)-4,4-difluoro-3,4-dihydroisoquinolin-1(2H)-one], the values for the IC50 (in test [1]; on Lck (h)) were 0.1 to 10 nM and greater than 1000 nM, respectively.

On to `Cc1c[nH]c(=O)c2ccc(-c3nc(-c4ccc(N5CCN(C(C)C)CC5)cc4)c(F)nc3N)cc12` [Example I-62, 6-(3-amino-5-fluoro-6-(4-(4-isopropylpiperazin-1-yl)phenyl)pyrazin-2-yl)-4-methylisoquinolin-1(2H)-one], for which the figures for the IC50 (in test [1]; on Lck (h)) were 0.1 to 10 nM and 101 to 1000 nM, respectively.

For the molecule `Nc1nc(F)c(-c2ccc(N3CCOCC3)c(CN3CCC3)c2)nc1-c1cc2c(cc1F)C(=O)NCC2` [Example I-145, 6-(3-amino-6-(3-(azetidin-1-ylmethyl)-4-morpholinophenyl)-5-fluoropyrazin-2-yl)-7-fluoro-3,4-dihydroisoquinolin-1(2H)-one], the IC50 in test [1] is 0.1 to 10 nM; on Lck (h) it was greater than 1000 nM.

As for `Cc1c[nH]c(=O)c2ccc(-c3nc(-c4ccc(N5CCOCC5)c(CN(C)C)c4)c(F)nc3N)cc12` [Example I-96, 6-(3-amino-6-(3-((dimethylamino)methyl)-4-morpholinophenyl)-5-fluoropyrazin-2-yl)-4-methylisoquinolin-1(2H)-one], the IC50 in test [1] was 0.1 to 10 nM; at Lck (h) it was greater than 1000 nM.

As to `Nc1nc(F)c(-c2ccc(N3CCN(C4COC4)CC3)cc2)nc1-c1cc(F)c2c(c1)CCNC2=O` [Example I-44, 6-(3-amino-5-fluoro-6-(4-(4-(oxetan-3-yl)piperazin-1-yl)phenyl)pyrazin-2-yl)-8-fluoro-3,4-dihydroisoquinolin-1(2H)-one], the IC50 in test [1] is 0.1 to 10 nM; at Lck (h), greater than 1000 nM.

Take `CNCC1Cc2cc(-c3nc(-c4ccc(N5CCN(C(C)C)CC5)cc4)c(F)nc3N)ccc2C(=O)N1` (centres unmarked) [Example I-11, 6-(3-amino-5-fluoro-6-(4-(4-isopropylpiperazin-1-yl)phenyl)pyrazin-2-yl)-3-((methylamino)methyl)-3,4-dihydroisoquinolin-1(2H)-one]: the IC50 in test [1] was 0.1 to 10 nM; at Lck (h), greater than 1000 nM.

Turning to `CC(C)N1CCN(c2ccc(-c3nc(-c4ccc5c(=O)[nH]cnc5c4)c(N)nc3F)cc2)CC1` [Example I-37, 7-(3-amino-5-fluoro-6-(4-(4-isopropylpiperazin-1-yl)phenyl)pyrazin-2-yl)quinazolin-4(3H)-one], the values for the IC50 (in test [1]; on Lck (h)) were 0.1 to 10 nM and greater than 1000 nM, respectively.
